system: PI3K; assay: Cellular testing of PI3K inhibitors: P-S473-PKB Luminex assay in PC3 cells; format: cell-based; conditions: PI3 kinase inhibition, cell
Experimental: Description of the Method for the Cellular Testing of PI3K Inhibitors
The cellular assay for determination of the P-S473-PKB level is carried out as a Luminex assay in 96-well format in PC3 cells.
PC3 cells are sown out with 20,000 cells per well in 100 μl medium (45% RPMI1460/45% Ham's F12/10% FCS) and incubated on the following day for 30 min with a serial dilution of the test substance (7 concentrations) under serum-free conditions. […] The lysates are incubated overnight at 4° C. with shaking with Luminex beads to which an anti-total PKB antibody is coupled. The detection is carried out on the following day by addition of a P-S473-PKB antibody and a species-specific PE-labelled secondary antibody. The detection of P-S473-PKB is carried out by measurement in a Luminex 100 instrument by determination of 100 events per cavity in a measurement time of 60 sec. […] The values of the preparations treated with test substance are calculated from this as percent of control, and IC50 values are determined by means of RS1.

Compound	IC50
COc1cc(Nc2nc3ccccc3nc2NS(=O)(=O)c2cn(C)cn2)c2c(c1)OCO2 [Compound A1]	0.1 to 10 µM
COc1cc(Nc2nc3ccccc3nc2NS(=O)(=O)c2ccc(C#N)cc2)c(CCCN(C)C)c(OC)c1 [Compound A2]	0.1 to 10 µM
COc1cc(Nc2nc3ccccc3nc2NS(=O)(=O)c2ccc(C#N)cc2)c(CCCN2CCS(=O)(=O)CC2)c(OC)c1 [Compound A3]	0.001 to 0.1 µM
COc1cc(Nc2nc3ccccc3nc2NS(=O)(=O)c2cn(C)cn2)c(CCCN2CCS(=O)(=O)CC2)c(OC)c1 [Compound A4]	0.1 to 10 µM
COc1cc2c(c(Nc3nc4ccccc4nc3NS(=O)(=O)c3cn(C)cn3)c1)OC(CO)C2 (stereo not shown) [Compound A5]	0.1 to 10 µM
COc1cc(Nc2nc3ccccc3nc2NS(=O)(=O)c2ccc(C#N)cc2)c(CCCCO)c(OC)c1 [Compound A6]	0.001 to 0.1 µM
COc1cc(Nc2nc3ccccc3nc2NS(=O)(=O)c2cn(C)cn2)c(CCCCO)c(OC)c1 [Compound A7]	0.1 to 10 µM
COc1cc(Nc2nc3ccccc3nc2NS(=O)(=O)c2cn(C)cn2)c2oc(C(=O)N(C)C)cc2c1 [Compound A9]	0.1 to 10 µM
COc1cc(Nc2nc3ccccc3nc2NS(=O)(=O)c2cn(C)cn2)c2c(c1)OCCO2 [Compound A10]	0.1 to 10 µM
COc1cc(C)c(OC)c(Nc2nc3ccccc3nc2NS(=O)(=O)c2cn(C)cn2)c1 [Compound A11]	0.1 to 10 µM
COc1cc(C)c(OC)c(Nc2nc3ccccc3nc2NS(=O)(=O)c2ccc(C(=O)N(C)C)cc2)c1 [Compound A12]	0.1 to 10 µM
CCc1c(Nc2nc3ccccc3nc2NS(=O)(=O)c2ccc(C(=O)N(C)C)cc2)cc(OC)cc1OC [Compound A13]	0.1 to 10 µM
CCc1c(Nc2nc3ccccc3nc2NS(=O)(=O)c2cn(C)cn2)cc(OC)cc1OC [Compound A14]	0.1 to 10 µM
COc1cc(Nc2nc3ccccc3nc2NS(=O)(=O)c2ccc(C(=O)N(C)C)cc2)c2occc2c1 [Compound A15]	> 10 µM
COc1cc(Nc2nc3ccccc3nc2NS(=O)(=O)c2cn(C)cn2)c2occc2c1 [Compound A16, 1-Methyl-1H-imidazole-4-sulfonic acid [3-(5-methoxybenzofuran-7-ylamino)quinoxalin-2-yl]amide]	> 10 µM
CCc1cc(OC)cc(Nc2nc3ccccc3nc2NS(=O)(=O)c2cn(C)cn2)c1OC [Compound A17]	> 10 µM
CCc1cc(OC)cc(Nc2nc3ccccc3nc2NS(=O)(=O)c2ccc(C(=O)N(C)C)cc2)c1OC [Compound A18]	> 10 µM
COc1cc(Nc2nc3ccccc3nc2NS(=O)(=O)c2ccncc2)c(OCCCO)c(OC)c1 [Compound A21]	> 10 µM
COc1cc(Nc2nc3ccccc3nc2NS(=O)(=O)c2cncs2)c(OCCCO)c(OC)c1 [Compound A22]	0.001 to 0.1 µM
COc1cc(Nc2nc3ccccc3nc2NS(=O)(=O)c2cnn(CCN(C)C)c2)c(OCCCO)c(OC)c1 [Compound A23, 1-(2-Dimethylamino-ethyl)-1H-pyrazole-4-sulfonic acid {3-[2-(3-hydroxypropoxy)-3,5-dimethoxy-phenylamino]quinoxalin-2-yl} amide]	0.1 to 10 µM
COc1cc(Nc2nc3ccccc3nc2NS(C)(=O)=O)c(OCCCO)c(OC)c1 [Compound A25]	0.1 to 10 µM
COc1cc(Nc2nc3ccccc3nc2NS(=O)(=O)c2ccccc2OC)c(OCCCO)c(OC)c1 [Compound A26]	0.1 to 10 µM

Compound	IC50
COc1cc(Nc2nc3ccccc3nc2NS(=O)(=O)c2cnn(CC(=O)N(C)C)c2)c(OCCCO)c(OC)c1 [Compound A27]	0.1 to 10 µM
COc1cc(Nc2nc3ccccc3nc2NS(=O)(=O)c2cn(C)c(CN(C)C)n2)c(OCCC(C)O)c(OC)c1 (stereo not shown) [Compound A28]	0.001 to 0.1 µM
COc1cc(Nc2nc3ccccc3nc2NS(=O)(=O)c2cnn(C(F)F)c2)c(OCCCO)c(OC)c1 [Compound A29]	0.001 to 0.1 µM
COc1cc(Nc2nc3ccccc3nc2NS(=O)(=O)c2ccccc2)c(OCCCO)c(OC)c1 [Compound A30]	0.001 to 0.1 µM
COc1cc(Nc2nc3ccccc3nc2NS(=O)(=O)c2cn(C)c(CN(C)C)n2)c(OC)c(OC)c1 [Compound A31]	0.1 to 10 µM
COc1cc(Nc2nc3ccccc3nc2NS(=O)(=O)c2cn(C)cn2)c(OCC(C)CO)c(OC)c1 (stereo not shown) [Compound A32]	0.1 to 10 µM
COc1cc(Nc2nc3ccccc3nc2NS(=O)(=O)c2cn(C)c(CN(C)C)n2)c(OCCCO)c(OC)c1 [Compound A33]	0.1 to 10 µM
CCOC(=O)Nc1ccc(S(=O)(=O)Nc2nc3ccccc3nc2Nc2cc(OC)cc(OC)c2OCCCO)cc1 [Compound A34]	0.1 to 10 µM
COc1cc(Nc2nc3ccccc3nc2NS(=O)(=O)C2CCS(=O)(=O)C2)c(OCCCO)c(OC)c1 (stereo not shown) [Compound A35]	0.001 to 0.1 µM
COc1cc(Nc2nc3ccccc3nc2NS(=O)(=O)CCCS(C)(=O)=O)c(OCCCO)c(OC)c1 [Compound A36]	0.001 to 0.1 µM
COc1cc(Nc2nc3ccccc3nc2NS(=O)(=O)c2ccc(CN(C)C)cc2)c(OCCCO)c(OC)c1 [Compound A38, 4-dimethylaminomethyl-N-{3-[2-(3-hydroxypropoxy)-3,5-dimethoxyphenylamino]quinoxalin-2-yl}benzenesulfonamide]	0.001 to 0.1 µM
COc1cc(Nc2nc3ccccc3nc2NS(=O)(=O)C(F)(F)F)c(OCCCO)c(OC)c1 [Compound A39]	0.001 to 0.1 µM
COc1cc(Nc2nc3ccccc3nc2NS(=O)(=O)C(F)(F)F)c(OC)c(OC)c1 [Compound A40]	0.001 to 0.1 µM
COc1cc(Nc2nc3ccccc3nc2NS(=O)(=O)c2ccc(C#N)s2)c(OCCS(C)(=O)=O)c(OC)c1 [Compound A41]	0.001 to 0.1 µM
COc1cc(Nc2nc3ccccc3nc2NS(=O)(=O)c2cn(C)cn2)c(OCCC(C)O)c(OC)c1 (stereo not shown) [Compound A42]	0.001 to 0.1 µM
COc1cc(Nc2nc3ccccc3nc2NS(=O)(=O)c2cnn(C)c2)c(OCCC(C)O)c(OC)c1 (stereo not shown) [Compound A43]	0.1 to 10 µM
COc1cc(Nc2nc3ccccc3nc2NS(=O)(=O)c2cnn(C)c2)c(OCCCO)c(OC)c1 [Compound A44]	0.001 to 0.1 µM
COc1cc(Nc2nc3ccccc3nc2NS(=O)(=O)c2ccc(C#N)cc2)c(OCCC(C)O)c(OC)c1 (stereo not shown) [Compound A45]	0.001 to 0.1 µM
COCCOCCOc1c(Nc2nc3ccccc3nc2NS(=O)(=O)c2cn(C)cn2)cc(OC)cc1OC [Compound A47]	0.001 to 0.1 µM
COCCOCCOc1c(Nc2nc3ccccc3nc2NS(=O)(=O)c2ccc(C#N)cc2)cc(OC)cc1OC [Compound A48]	0.001 to 0.1 µM
COc1cc(Nc2nc3ccccc3nc2NS(=O)(=O)C(F)(F)F)c(OCCOCCO)c(OC)c1 [Compound A49]	0.001 to 0.1 µM
COc1cc(Nc2nc3ccccc3nc2NS(=O)(=O)c2ccc(NC(C)=O)cc2)c(OCCCO)c(OC)c1 [Compound A50]	0.001 to 0.1 µM

Compound	IC50
COc1cc(Nc2nc3ccccc3nc2NS(=O)(=O)c2ccc(C#N)s2)c(OCCCO)c(OC)c1 [Compound A51]	0.001 to 0.1 µM
COc1cc(Nc2nc3ccccc3nc2NS(=O)(=O)c2cn(C)cn2)c(OCC[S+](C)[O-])c(OC)c1 (stereo not shown) [Compound A52]	0.1 to 10 µM
COc1cc(Nc2nc3ccccc3nc2NS(=O)(=O)c2ccc(F)cc2)c(OCCOCCO)c(OC)c1 [Compound A53]	0.001 to 0.1 µM
COc1cc(Nc2nc3ccccc3nc2NS(=O)(=O)c2cn(C)cn2)c(OCCN2CCOCC2)c(OC)c1 [Compound A54]	0.1 to 10 µM
COc1cc(Nc2nc3ccccc3nc2NS(=O)(=O)c2cn(C)cn2)c(OCCS(C)(=O)=O)c(OC)c1 [Compound A55]	0.001 to 0.1 µM
CCCS(=O)(=O)Nc1nc2ccccc2nc1Nc1cc(OC)cc(OC)c1OCCOCCO [Compound A56]	0.1 to 10 µM
COc1cc(Nc2nc3ccccc3nc2NS(=O)(=O)c2ccc(CN(C)C)cc2)c(OCCOCCO)c(OC)c1 [Compound A57, 4-Dimethylaminomethyl-N-(3-{2-[2-(2-hydroxy-ethoxy)ethoxy]-3,5-dimethoxyphenylamino}-quinoxalin-2-yl)benzenesulfonamide]	0.1 to 10 µM
COc1cc(Nc2nc3ccccc3nc2NS(=O)(=O)c2ccccc2)c(OCCOCCO)c(OC)c1 [Compound A58]	0.001 to 0.1 µM
COc1cc(Nc2nc3ccccc3nc2NS(=O)(=O)c2ccc(C#N)s2)c(OCCOCCO)c(OC)c1 [Compound A59]	0.001 to 0.1 µM
COc1cc(Nc2nc3ccccc3nc2NS(=O)(=O)c2cccs2)c(OCCN(C)CCO)c(OC)c1 [Compound A60]	0.001 to 0.1 µM
COc1ccc(S(=O)(=O)Nc2nc3ccccc3nc2Nc2cc(OC)cc(OC)c2OCCOCCO)cc1 [Compound A61]	0.1 to 10 µM
COc1cc(Nc2nc3ccccc3nc2NS(=O)(=O)c2ccc(NC(C)=O)cc2)c(OCCOCCO)c(OC)c1 [Compound A62]	0.1 to 10 µM
COc1cc(Nc2nc3ccccc3nc2NS(=O)(=O)c2cccc(C#N)c2)c(OCCOCCO)c(OC)c1 [Compound A63]	0.1 to 10 µM
COc1cc(Nc2nc3ccccc3nc2NS(=O)(=O)c2cccs2)c(OCCOCCO)c(OC)c1 [Compound A64]	0.001 to 0.1 µM
COc1cc(Nc2nc3ccccc3nc2NS(=O)(=O)c2cccnc2)c(OCCOCCO)c(OC)c1 [Compound A65]	0.1 to 10 µM
COc1cc(Nc2nc3ccccc3nc2NS(=O)(=O)c2cccs2)c(OCCO)c(OC)c1 [Compound A66]	0.001 to 0.1 µM
COc1cc(Nc2nc3ccccc3nc2NS(=O)(=O)c2cccnc2)c(OCCS(=O)(=O)CCO)c(OC)c1 [Compound A67]	0.1 to 10 µM
COc1cc(Nc2nc3ccccc3nc2NS(=O)(=O)c2cccnc2)c(OCCN(C)CCO)c(OC)c1 [Compound A68]	0.1 to 10 µM
COc1cc(Nc2nc3ccccc3nc2NS(=O)(=O)c2ccc(C(=O)N(C)C)cc2)c(OCCOCCO)c(OC)c1 [Compound A69]	0.1 to 10 µM
COc1cc(Nc2nc3ccccc3nc2NS(=O)(=O)c2ccc(C#N)cc2)c(OCCN2CCOCC2)c(OC)c1 [Compound A70]	0.001 to 0.1 µM
